From paper PMC6692352, “DF2726A, a new IL-8 signalling inhibitor, is able to counteract chemotherapy-induced neuropathic pain” (Scientific Reports, 2019)
“Also recorded” adds a separate entry of the source.

Legend:
GFAP = assay: Western blot of DRG of oxaliplatin rats, astrocyte marker GFAP; assay type: in vivo, male Wistar rats; details: 30 mg/kg os; p < 0.01 vs OXA rats
Protocol: Animals were sacrificed and dorsal root ganglia (DRG) (L4-L6) were removed and stored at […]. They were homogenized on ice-cold lysis buffer [20 mM Tris–HCl (pH 7.5), 10 mM NaF, 150 mM NaCl, 1% Nonidet P-40, 1 mM phenylmethylsulfonyl fluoride, 1 mM Na3VO4, leupeptin and trypsin inhibitor 10 μg/mL; 20 µl/sample, as previously described.
After 1 h, tissue lysates were obtained by centrifugation at 20,000 g for 15 min at 4 °C. Protein concentrations were estimated by the Bio-Rad protein assay using bovine serum albumin as standard.
DRG lysate proteins (30 μg) were dissolved in Laemmli sample buffer, boiled for 5 min, and separated on SDS-polyacrylamide gel elctrophoresis and transferred onto nitrocellulose membrane (240 mA for 40 min at room temperature). […] The protein bands were scanned and densitometrically analyzed with a model GS-700 imaging densitometer (Bio-Rad Laboratories, Milan, Italy). […]

CYP 1A2 [1] = assay type: in vitro ADME
Description: (§1) Table 1 Physicochemical and in Vitro ADME Properties of DF2726A. | column: DF2726A

CYP 1A2 [2] = target: CYP 1A2 (Homo sapiens, UniProt P05177); assay type: in vitro ADME
Description: as §1

human COX1 = target: T1, human COX1 (Homo sapiens, UniProt P23219); assay: COX1 assay, PGE2 formation from arachidonic acid, recombinant enzyme; assay type: biochemical
T1 construct: host or cells: Sf-9
Protocol: Protein binding in human, dog and rat plasma […]
in DMSO at a final concentration of 2 mM. […]
plasma to obtain a final concentration of 10 µM. Human, dog and rat plasma (200 µL) in triplicate […]
vials for LC-MS/MS analysis. […]
mM Tris-HCl (pH 8.0), 1.98 mM phenol and 1.02 µM hematine. Thereafter, the reaction was initiated by adding 4 µM (COX1) or 2 µM (COX2) of arachidonic acid and the mixture was incubated for 5 min at RT. For basal control measurements, arachidonic acid was omitted from the reaction mixture. Following incubation, t he reaction was stopped by the addition of 1 M HCl then 1 M Tris/HCl (pH 8.0) followed by cooling to 4°C.
The fluorescence acceptor (d2 labeled PGE2) and the fluorescence donor (anti -PGE2 antibody labeled with europium Cryptate) were then added. After 120 min, the fluorescence transfer corresponding to the amount of residual PGE2 was measured at λex=337 nm, λem=620 nm and λem=665 nm using a microplate reader (Envision, Perkin Elmer). The enzyme activity was determined by dividing the signal measured at 665 nm by that measured at 620 nm (ratio). The results were expressed as a percent age inhibition of the control enzyme activity. The standard inhibitory reference compound was Diclofenac, which was tested in each experiment at several concentrations to obtain an inhibition curve from which its IC50 value was calculated. […]

T1 sequence (P23219 24-599): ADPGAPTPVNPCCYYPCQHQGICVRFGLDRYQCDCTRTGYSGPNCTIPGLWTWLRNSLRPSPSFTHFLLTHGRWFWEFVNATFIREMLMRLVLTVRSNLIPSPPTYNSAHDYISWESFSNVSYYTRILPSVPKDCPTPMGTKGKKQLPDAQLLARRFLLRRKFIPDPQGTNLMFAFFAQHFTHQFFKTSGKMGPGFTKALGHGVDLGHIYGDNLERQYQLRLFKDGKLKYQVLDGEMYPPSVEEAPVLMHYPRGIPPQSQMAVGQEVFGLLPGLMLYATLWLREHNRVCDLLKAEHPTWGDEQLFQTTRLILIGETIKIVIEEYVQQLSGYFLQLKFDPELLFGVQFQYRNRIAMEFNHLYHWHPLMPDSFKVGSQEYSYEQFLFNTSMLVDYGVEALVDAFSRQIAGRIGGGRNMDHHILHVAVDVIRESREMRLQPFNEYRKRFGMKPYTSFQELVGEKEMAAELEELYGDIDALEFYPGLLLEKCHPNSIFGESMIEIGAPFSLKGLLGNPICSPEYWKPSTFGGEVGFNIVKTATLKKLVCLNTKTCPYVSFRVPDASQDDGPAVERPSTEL
Chain of CYP 1A2 (Homo sapiens, UniProt P05177) (P05177 whole entry): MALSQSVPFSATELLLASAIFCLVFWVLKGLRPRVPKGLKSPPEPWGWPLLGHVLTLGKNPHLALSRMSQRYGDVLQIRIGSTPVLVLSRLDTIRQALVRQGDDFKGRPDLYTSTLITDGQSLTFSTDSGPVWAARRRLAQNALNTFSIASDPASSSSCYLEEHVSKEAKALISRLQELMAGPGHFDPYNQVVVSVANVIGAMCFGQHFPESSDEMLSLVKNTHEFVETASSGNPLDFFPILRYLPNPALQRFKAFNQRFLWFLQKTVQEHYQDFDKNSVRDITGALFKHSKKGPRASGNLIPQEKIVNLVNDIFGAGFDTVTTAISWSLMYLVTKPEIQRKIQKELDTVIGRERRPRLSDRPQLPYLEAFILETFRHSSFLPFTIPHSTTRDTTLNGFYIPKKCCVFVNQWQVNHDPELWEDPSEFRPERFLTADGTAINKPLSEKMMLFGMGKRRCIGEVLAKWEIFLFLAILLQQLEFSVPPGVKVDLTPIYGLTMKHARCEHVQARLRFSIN

## CC(C)(C(=O)O)c1ccc(Nc2nc(C(F)(F)F)cs2)cc1 [DF2726A]
GFAP
  GFAP expression in DRG of oxaliplatin rats: significantly reduced the expression
CYP 1A2 [1]
  IC50: > 100 µM
CYP 1A2 [2]
  IC50: > 30 µM
Human COX1
  COX 1 Inhibition (50 µM): did not inhibit; also recorded: No Inhibition observed
